Assay: Solubility in DMSO or in DMSO and water
Settings: isolates

**Q.** With CCCCCc1cc(O)c2c(c1)OC(C)(C)[C@@H]1CCC(C)=C[C@@H]21 [THC, tetrahydrocannabinol] as the compound, how does the “solubility in DMSO” value read?
**A.** The value was “soluble in DMSO”.
